Read-outs that look alike come from different tables or passages of the source.
Key:
[1] = tested on: HeLa human cervical carcinoma cell line; assay: MTT in vitro antitumor (antiproliferative) assay, HeLa; assay type: cell-based; settings: read-out: IC50 HeLa
Description: (§1) The in vitro antitumor activities were evaluated on human cancer cell lines SGC-7901 and HeLa by the MTT assay, using irinotecan as the reference compound.
(§2) The in vitro antitumor activity was evaluated on two human cancer cell lines with the MTT method. SGC-7901 is a human gastric adenocarcinoma cancer cell line and HeLa is a human cervical carcinoma cell line. Cells were provided by the Jilin Province Tumor Institute. Cells were maintained in IMDM medium supplemented with 10% fetal calf serum, 2 mM glutamine, 100 U/mL penicillin, and 100 μg/mL streptomycin, at 37 °C in a humidified atmosphere containing 5% CO2. The human cancer lines SGC-7901 and HELA at a concentration of […] were incubated in a 96-well microtiter plate (100 μL in every well) for 24 h (37 °C, 5%CO2). Then the cells were incubated continuously for 72 h following various concentrations of test drugs were added. The concentrations are 50 μM, 10 μM, 2 μM, 0.4 μM, 0.08 μM, 0.016 μM, 0.0032 μM, respectively. After the 100 μL 0.05% MTT solution was added to each well, the plate was incubated for a further 4 h before removal of medium, the media removed. Formazan crystals were dissolved with 100 μL DMSO, then the absorbance was detected at 490 nm.

AChE from electric eel = AChE from electric eel (Electrophorus electricus, UniProt O42275); assay: AChE inhibition assay (modified Ellman method); assay type: biochemical; settings: phosphate buffer pH 7.3, 37 °C
AChE from electric eel, sequence (O42275 24-633): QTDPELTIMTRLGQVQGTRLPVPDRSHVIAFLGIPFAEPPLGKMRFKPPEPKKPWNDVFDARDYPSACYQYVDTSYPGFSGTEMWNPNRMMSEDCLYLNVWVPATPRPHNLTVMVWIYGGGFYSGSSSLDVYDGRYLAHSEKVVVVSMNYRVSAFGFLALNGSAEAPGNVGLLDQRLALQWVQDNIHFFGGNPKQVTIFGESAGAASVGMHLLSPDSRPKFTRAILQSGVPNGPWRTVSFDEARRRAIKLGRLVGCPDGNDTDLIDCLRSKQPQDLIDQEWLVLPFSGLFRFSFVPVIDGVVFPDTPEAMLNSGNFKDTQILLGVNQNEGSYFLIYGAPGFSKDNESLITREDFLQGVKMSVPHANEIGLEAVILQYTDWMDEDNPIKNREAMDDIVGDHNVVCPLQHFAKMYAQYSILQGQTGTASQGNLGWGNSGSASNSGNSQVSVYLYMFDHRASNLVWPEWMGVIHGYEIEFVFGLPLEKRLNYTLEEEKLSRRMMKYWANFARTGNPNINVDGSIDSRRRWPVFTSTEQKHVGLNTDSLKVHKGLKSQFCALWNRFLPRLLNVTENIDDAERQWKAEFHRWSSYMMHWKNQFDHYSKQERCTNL
From the text: Irinotecan has been reported to be a potent inhibiter of AChE, and inhibition of this enzyme causes acute cholinergic diarrhea. Unlike irinotecan, the compounds we assayed were only weak inhibitors of AChE. […] One possible explanation is that the active site of AChE is present at the bottom of a gorge that is lined with hydrophobic amino acid residues. The terminal dipiperidino moiety in CPT-11 that interacts with amino acid residues within AChE plays a major role in enzyme inhibition, which has been confirmed by X-ray crystallographic studies.
The AChE inhibition by all compounds was studied according to a modification of the method of Ellman et al.. The activity was assayed with AChE from electric eel in the presence or absence of the test compounds in phosphate buffer (pH7.3). After the incubation at 37 °C for 1 min, 0.38 mM 5,5-dithiobisnitrobenzoic acid and 0.56 mM ATCh were added to the buffer. The changes in absorbance were read at 412 nm, per 15 s intervals for 3 min by a spectrophotometer (UV-2500, Shimadzu Corp., Kyoto, Japan).

[2] = Chemical stability of the prodrugs in PBS (HPLC); assay type: physicochemical; settings: for Remaining Prodrugs 1 h pH 4.6 / Remaining Prodrugs 12 h pH 4.6: PBS pH 4.6, 37 °C; for Remaining Prodrugs 1 h pH 7.4 / Remaining Prodrugs 12 h pH 7.4: PBS pH 7.4, 37 °C
Description: They were stable at pH 4.6 at 37 °C for 12 h. Except for compound 5h, less than 35% of the prodrugs remained after incubation for 12 h in pH 7.4 buffer. […] For example, less than 30% of the prodrugs 7a–f remained, while more than 85% of the prodrugs 5a–h remained after incubation for 1 h in pH 7.4 buffer.
The stability of all compounds was investigated in PBS and human plasma by HPLC using a C18 analytical column. The mobile phase was composed of water and acetonitrile at a ratio of 70:30, respectively, containing 1% trifluoroacetic acid. The amount of the compound and its metabolite SN-38 were flowed at the rate of 0.8 mL·min^−1 and detected by the UV wavelength of 370 nm. Stability test in PBS: each compound was dissolved in PBS (pH 7.4 and pH 4.6), incubated at 37 °C and analyzed at 1, 3, 6, 12 h. Stability test in plasma: The test compounds were dissolved in DMSO and diluted to 1 mM by 0.9% physiological saline. Forty μL of each solution was added into plasma with a final concentration of 0.1 mM. The mixture was incubated in a 37 °C water bath following the vigorous vortex mixing for 15 s. Samples were analyzed at 1, 3, 6, 12 h. 400 μL of cold acetonitrile (containing 1% trifluoroacetic acid) was added to each sample, vortex-mixed for 15 s and centrifuged at 3500 rpm for 15 min at 4 °C.

[3] = tested on: SGC-7901 human gastric adenocarcinoma cancer cell line; assay: MTT in vitro antitumor (antiproliferative) assay, SGC-7901; assay type: cell-based; settings: for IC50: Homo sapiens, read-out: IC50 SGC-7901; for fold greater antiproliferative activity (lower IC50) than irinotecan, SGC-7901 cells: IC50 ratio vs irinotecan
Description: as §1, §2

[4] = tested on: human colon adenocarcinoma SW1116 xenografts; assay: Tumor growth inhibition in human colon adenocarcinoma SW1116 xenografts in nude mice; assay type: in vivo; settings: 60 mg/kg; for Body Weight Change: once per day for 6 days, nude mice
Description: The antitumor activity of 5e, compared with CPT-11 and SN-38, was investigated in human colon adenocarcinoma SW1116 xenografts in nude mice. The model animals were divided into four experimental groups, eight animals per group. Tested compouds were each administered by injection in the tumor section once per day for contiguous 6 days. The injection doses of test compound 5e, CPT-11, and SN-38 were 60 mg/kg, respectively. Using the vehicle group as the control, we tested the inhibitory activities of these compounds for 6 days and measured the changes in body weight and tumor size every 2 days. […] No toxic death occurred after drug treatment, and the body weight losses induced by 5e, CPT-11, and SN-38 at the given dose were similar.

[5] = set-up: method as in PMID 11716702, PMID 15217940, PMID 19495753; settings: cited from earlier work

Row | SMILES | IC50 ([1]; 72 h) [nM] | IC50 (AChE from electric eel; AChE IC50, electric eel AChE) [nM] | Remaining Prodrugs 1 h pH 4.6 [2] [%] | Remaining Prodrugs 12 h pH 4.6 [2] [%] | Remaining Prodrugs 1 h pH 7.4 [2] [%] | Remaining Prodrugs 12 h pH 7.4 [2] [%] | IC50 ([3]; SGC-7901, 72 h) [nM] | fold greater antiproliferative activity (lower IC50) than irinotecan, SGC-7901 cells [3] [fold] | IC50 ([1]; MTT, 72 h incubation) [nM] | IC50 (AChE from electric eel; electric eel AChE, read-out: AChE IC50) [nM] | IC50 ([3]; SGC-7901, MTT, 72 h incubation) [nM] | Tumor Weight ([4]; injection in the tumor section once per day for 6 days, SW1116 xenograft nude mice, x ± SD) [g/10g] | Inhibitory Rate ([4]; injection in the tumor section once per day for 6 days, day 6, vs vehicle) [%] | Body Weight Change [4] [g] | Body Weight Change ([4]; listed as CPT-11) | bioconversion efficiency from irinotecan to the active form SN-38 [5]
1 | CCc1c2c(nc3ccc(OC(=O)N[C@@H](CC(=O)O)C(=O)O)cc13)-c1cc3c(c(=O)n1C2)COC(=O)[C@]3(O)CC [Compound 5h, 10-OCO-(D-Asp-OH)-SN-38] | < 3.2 | 7430 | 100 | 94.5 | 93.4 | 52.2 | 240 | 30 |  |  |  |  |  |  |  | 
2 | CCc1c2c(nc3ccc(OC(=O)N4CCC(N5CCCCC5)CC4)cc13)-c1cc3c(c(=O)n1C2)COC(=O)[C@]3(O)CC [Irinotecan, 7-ethyl-10-[4-(1-piperidino)-1-piperidino]-carbonyloxycamptothecin] |  |  |  |  |  |  |  |  | 1320 ± 130 | 200 | 7380 ± 1240 | 0.17 ± 0.04 | 51 | -3.10 | similar | 4%–5%
3 | CCc1c2c(nc3ccc(OC(=O)NC(C(=O)O)C(C)CC)cc13)-c1cc3c(c(=O)n1C2)COC(=O)[C@]3(O)CC (some centres unmarked) [Compound 5f, 10-OCO-(Ile-OH)-SN-38] | 3.64 | 1360 |  |  |  |  | 760 ± 340 |  |  |  |  |  |  |  |  | 
4 | CCc1c2c(nc3ccc(OC(=O)NC(C)C(=O)N[C@@H](CC(=O)O)C(=O)O)cc13)-c1cc3c(c(=O)n1C2)COC(=O)[C@]3(O)CC (stereo partly drawn) [Compound 7e, 10-OCO-(L-Asp-Ala-OH)-SN-38] | 12.9 |  | 100 | 94.5 | 23.4 | 0 | 210 ± 550 |  |  |  |  |  |  |  |  | 
5 | CCc1c2c(nc3ccc(OC(=O)NC(C(=O)O)C(C)C)cc13)-c1cc3c(c(=O)n1C2)COC(=O)[C@]3(O)CC (some centres unmarked) [Compound 5c, 10-OCO-(Val-OH)-SN-38] | 5.61 |  |  |  |  |  | 1880 ± 720 |  |  |  |  |  |  |  |  | 
6 | CCc1c2c(nc3ccc(OC(=O)NC(CCC(=O)O)C(=O)O)cc13)-c1cc3c(c(=O)n1C2)COC(=O)[C@]3(O)CC (some centres unmarked) [Compound 5d, 10-OCO-(Glu-OH)-SN-38] |  |  | 98.1 | 92.5 | 85.2 | 8.6 |  |  |  |  |  |  |  |  |  | 
7 | CCc1c2c(nc3ccc(OC(=O)NCC(=O)NC(CCC(=O)O)C(=O)O)cc13)-c1cc3c(c(=O)n1C2)COC(=O)[C@]3(O)CC (stereo partly drawn) [Compound 7c, 10-OCO-(Glu-Gly-OH)-SN-38] | < 3.2 | > 100000 | 100 | 96.4 | 29.4 | 0 | 200 ± 70 | 30 |  |  |  |  |  |  |  | 
8 | CCc1c2c(nc3ccc(OC(=O)NC(C)C(=O)N[C@H](CC(=O)O)C(=O)O)cc13)-c1cc3c(c(=O)n1C2)COC(=O)[C@]3(O)CC (stereo partly drawn) [Compound 7d, 10-OCO-(D-Asp-Ala-OH)-SN-38] | < 3.2 | 4440 | 100 | 95.5 | 26.3 | 0 | 260 ± 640 | 30 |  |  |  |  |  |  |  | 

Reference: publication PMC6270839, “Synthesis and Biological Evaluation of Novel 10-Substituted-7-ethyl-10-hydroxycamptothecin (SN-38) Prodrugs” (Molecules, 2014)
